The results in this text go back to ChEMBL document CHEMBL2074032, “Involvement of MDR1 P-glycoprotein in multifactorial resistance to methotrexate” (Int J Cancer, 1996).

The data set addresses ATP-dependent translocase ABCB1 (Homo sapiens, UniProt P08183). Briefly: TP_TRANSPORTER: intracellular accumulation in CEM/MTX R cells. The class given is functional, cell-based.

The structures appear in SMILES notation.

Sequence of ATP-dependent translocase ABCB1 (P08183 whole entry): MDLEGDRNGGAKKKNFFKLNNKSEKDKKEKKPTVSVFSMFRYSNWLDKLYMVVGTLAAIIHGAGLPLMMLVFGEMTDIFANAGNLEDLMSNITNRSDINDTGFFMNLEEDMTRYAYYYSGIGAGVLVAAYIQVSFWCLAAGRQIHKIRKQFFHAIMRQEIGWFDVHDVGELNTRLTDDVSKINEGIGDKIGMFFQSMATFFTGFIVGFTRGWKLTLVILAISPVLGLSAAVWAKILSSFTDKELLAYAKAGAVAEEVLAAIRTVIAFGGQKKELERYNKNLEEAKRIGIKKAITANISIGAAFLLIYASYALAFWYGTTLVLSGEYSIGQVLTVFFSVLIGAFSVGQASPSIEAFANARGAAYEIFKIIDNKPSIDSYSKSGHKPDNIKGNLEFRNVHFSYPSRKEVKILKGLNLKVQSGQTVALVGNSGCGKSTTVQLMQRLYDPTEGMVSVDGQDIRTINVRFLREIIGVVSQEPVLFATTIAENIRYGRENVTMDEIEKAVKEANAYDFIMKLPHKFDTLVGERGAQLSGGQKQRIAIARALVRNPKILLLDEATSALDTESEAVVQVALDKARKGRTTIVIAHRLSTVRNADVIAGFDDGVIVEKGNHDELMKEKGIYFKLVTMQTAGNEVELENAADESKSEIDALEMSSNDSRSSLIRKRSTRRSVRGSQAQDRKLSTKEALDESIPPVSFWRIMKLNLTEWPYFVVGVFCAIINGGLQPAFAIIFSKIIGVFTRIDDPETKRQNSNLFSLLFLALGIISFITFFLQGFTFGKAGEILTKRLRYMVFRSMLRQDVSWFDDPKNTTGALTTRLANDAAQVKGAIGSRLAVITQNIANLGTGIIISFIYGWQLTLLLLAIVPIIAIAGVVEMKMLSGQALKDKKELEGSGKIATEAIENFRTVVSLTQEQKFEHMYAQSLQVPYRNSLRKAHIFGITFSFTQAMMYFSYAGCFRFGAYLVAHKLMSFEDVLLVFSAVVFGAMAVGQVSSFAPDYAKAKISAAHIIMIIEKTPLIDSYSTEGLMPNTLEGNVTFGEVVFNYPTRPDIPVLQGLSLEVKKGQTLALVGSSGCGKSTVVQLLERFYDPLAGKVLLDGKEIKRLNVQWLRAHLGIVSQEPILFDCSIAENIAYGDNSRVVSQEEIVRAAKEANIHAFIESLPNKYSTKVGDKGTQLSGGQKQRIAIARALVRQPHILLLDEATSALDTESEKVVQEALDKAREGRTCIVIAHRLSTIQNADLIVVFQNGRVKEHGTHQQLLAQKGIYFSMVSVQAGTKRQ

Regarding `CN(Cc1cnc2nc(N)nc(N)c2n1)c1ccc(C(=O)N[C@@H](CCC(=O)O)C(=O)O)cc1` [METHOTREXATE], the Activity result was “substrate [+]”.
